Source: patent publication US20180200257A1, “METHODS FOR THE TREATMENT OF INFLAMMATORY DISORDERS” (Galapagos NV, priority 2015, published 2018)

System: subjects with moderately to severely active RA who have an inadequate response to methotrexate (MTX)
Test: Study 1 (add-on to MTX) - Alanine Aminotransferase (ALT) levels
Type: in vivo, human
Description: Double-blind, placebo-controlled add on study in subjects with moderately to severely active RA who have an inadequate response to methotrexate (MTX) (oral or parenteral).
595 subjects randomized to one of 6 dose regimens of Compound 1 (dosed as [Compound 1:HCl:3H2O]) (3 dose levels administered either once or twice daily) or placebo on top of each subject's stable dose of MTX.
Compound 1 (dosed as [Compound 1:HCl:3H2O]) is dosed for twelve weeks once daily (q.d.) (50 mg, 100 mg or 200 mg) or twice daily (b.i.d.) (25 mg, 50 mg or 100 mg); or placebo.
At Week 12, the subjects on placebo who have not achieved 20% improvement in swollen joint count (SJC66) and tender joint count (TJC68) are re-randomized automatically to receive Compound 1 (dosed as a [Compound 1:HCl:3H2O]) either at 100 mg q.d. or 50 mg b.i.d. doses in a blinded fashion; subjects on 50 mg q.d. who have not achieved 20% improvement in SJC66 and TJC68 will be assigned to 100 mg q.d. and subjects on 25 mg b.i.d. that have not achieved a 20% improvement in SJC66 and TJC68 will be assigned to 50 mg b.i.d. Subjects who switch treatment at week 12 are handled as if they discontinued at week 12 for the purpose of statistical analysis, whereas subjects in the other groups will maintain their randomized treatment until Week 24.
ALT levels determination is available at Quest Diagnostics, Clinical Trials, Quest House, 125-135 Staines Road, Hounslow, Middlesex, TW3 3JB, United Kingdom under Catalogue n#84460.
ALT catalyzes the exchange of the amino group of alanine with the oxogroup of 2-ketoglutarate to form pyruvate and glutamate. In the presence of lactic dehydrogenase, pyruvate reacts with NADH to form NAD+, measured spectrophotometrically. Guidelines for the ALT value have been issued by the association for Clinical Biochemistry and Laboratory Medicine, 130-132 Tooley Street LONDON SE1 2TU, united Kingdom, wherein the ALT value should be below 34 U/l in Female and below 52 U/L in male.

[1] = 12 weeks results, 50 mg q.d., week 1
[2] = 12 weeks results, 50 mg q.d., week 2
[3] = 12 weeks results, 50 mg q.d., week 4
[4] = 12 weeks results, 50 mg q.d., week 8
[5] = 12 weeks results, 50 mg q.d., week 12
[6] = 12 weeks results, 100 mg q.d., week 1
[7] = 12 weeks results, 100 mg q.d., week 2
[8] = 12 weeks results, 100 mg q.d., week 4
[9] = 12 weeks results, 100 mg q.d., week 8
[10] = 12 weeks results, 100 mg q.d., week 12
[11] = 12 weeks results, 200 mg q.d., week 1
[12] = 12 weeks results, 200 mg q.d., week 2
[13] = 12 weeks results, 200 mg q.d., week 4
[14] = 12 weeks results, 200 mg q.d., week 8
[15] = 12 weeks results, 200 mg q.d., week 12
[16] = 12 weeks results, 2 × 25 mg b.i.d., week 1
[17] = 12 weeks results, 2 × 25 mg b.i.d., week 2
[18] = 12 weeks results, 2 × 25 mg b.i.d., week 4
[19] = 12 weeks results, 2 × 25 mg b.i.d., week 8
[20] = 12 weeks results, 2 × 25 mg b.i.d., week 12
[21] = 12 weeks results, 2 × 50 mg b.i.d., week 1
[22] = 12 weeks results, 2 × 50 mg b.i.d., week 2
[23] = 12 weeks results, 2 × 50 mg b.i.d., week 4
[24] = 12 weeks results, 2 × 50 mg b.i.d., week 8
[25] = 12 weeks results, 2 × 50 mg b.i.d., week 12
[26] = 12 weeks results, 2 × 100 mg b.i.d., week 1
[27] = 12 weeks results, 2 × 100 mg b.i.d., week 2
[28] = 12 weeks results, 2 × 100 mg b.i.d., week 4
[29] = 12 weeks results, 2 × 100 mg b.i.d., week 8
[30] = 12 weeks results, 2 × 100 mg b.i.d., week 12
[31] = 24 weeks results, continued 25 mg b.i.d., week 1
[32] = 24 weeks results, continued 25 mg b.i.d., week 2
[33] = 24 weeks results, continued 25 mg b.i.d., week 4
[34] = 24 weeks results, continued 25 mg b.i.d., week 8
[35] = 24 weeks results, continued 25 mg b.i.d., week 12
[36] = 24 weeks results, continued 25 mg b.i.d., week 16
[37] = 24 weeks results, continued 25 mg b.i.d., week 20
[38] = 24 weeks results, continued 25 mg b.i.d., week 24
[39] = 24 weeks results, continued 50 mg b.i.d., week 1
[40] = 24 weeks results, continued 50 mg b.i.d., week 2
[41] = 24 weeks results, continued 50 mg b.i.d., week 4
[42] = 24 weeks results, continued 50 mg b.i.d., week 8
[43] = 24 weeks results, continued 50 mg b.i.d., week 12
[44] = 24 weeks results, continued 50 mg b.i.d., week 16
[45] = 24 weeks results, continued 50 mg b.i.d., week 20
[46] = 24 weeks results, continued 50 mg b.i.d., week 24
[47] = 24 weeks results, continued 50 mg q.d., week 1
[48] = 24 weeks results, continued 50 mg q.d., week 2
[49] = 24 weeks results, continued 50 mg q.d., week 4
[50] = 24 weeks results, continued 50 mg q.d., week 8

## O=C(Nc1nc2cccc(-c3ccc(CN4CCS(=O)(=O)CC4)cc3)n2n1)C1CC1 [Compound 1, cyclopropanecarboxylic acid {5-[4-(1,1-dioxo-thiomorpholin-4-ylmethyl)-phenyl]-[1,2,4]triazolo[1,5-a]pyridin-2-yl}-amide]
[1]
  Study 1 - ALT Mean CFB: 1 IU/L
  Study 1 - ALT Mean percentage CFB: 5%
[2]
  Study 1 - ALT Mean CFB: −1 IU/L
  Study 1 - ALT Mean percentage CFB: 0%
[3]
  Study 1 - ALT Mean CFB: −1 IU/L
  Study 1 - ALT Mean percentage CFB: 4%
[4]
  Study 1 - ALT Mean CFB: 0 IU/L
  Study 1 - ALT Mean percentage CFB: 9%
[5]
  Study 1 - ALT Mean CFB: 0 IU/L
  Study 1 - ALT Mean percentage CFB: 12%
[6]
  Study 1 - ALT Mean CFB: 3 IU/L
  Study 1 - ALT Mean percentage CFB: 14%
[7]
  Study 1 - ALT Mean CFB: 1 IU/L
  Study 1 - ALT Mean percentage CFB: 9%
[8]
  Study 1 - ALT Mean CFB: 1 IU/L
  Study 1 - ALT Mean percentage CFB: 9%
[9]
  Study 1 - ALT Mean CFB: 2 IU/L
  Study 1 - ALT Mean percentage CFB: 15%
[10]
  Study 1 - ALT Mean CFB: 2 IU/L
  Study 1 - ALT Mean percentage CFB: 16%
[11]
  Study 1 - ALT Mean CFB: 2 IU/L
  Study 1 - ALT Mean percentage CFB: 11%
[12]
  Study 1 - ALT Mean CFB: 1 IU/L
  Study 1 - ALT Mean percentage CFB: 16%
[13]
  Study 1 - ALT Mean CFB: 1 IU/L
  Study 1 - ALT Mean percentage CFB: 15%
[14]
  Study 1 - ALT Mean CFB: 4 IU/L
  Study 1 - ALT Mean percentage CFB: 31%
[15]
  Study 1 - ALT Mean CFB: 3 IU/L
  Study 1 - ALT Mean percentage CFB: 34%
[16]
  Study 1 - ALT Mean CFB: −1 IU/L
  Study 1 - ALT Mean percentage CFB: 4%
[17]
  Study 1 - ALT Mean CFB: −2 IU/L
  Study 1 - ALT Mean percentage CFB: 2%
[18]
  Study 1 - ALT Mean CFB: −1 IU/L
  Study 1 - ALT Mean percentage CFB: 9%
[19]
  Study 1 - ALT Mean CFB: 0 IU/L
  Study 1 - ALT Mean percentage CFB: 11%
[20]
  Study 1 - ALT Mean CFB: 1 IU/L
  Study 1 - ALT Mean percentage CFB: 21%
[21]
  Study 1 - ALT Mean CFB: 1 IU/L
  Study 1 - ALT Mean percentage CFB: 8%
[22]
  Study 1 - ALT Mean CFB: 1 IU/L
  Study 1 - ALT Mean percentage CFB: 13%
[23]
  Study 1 - ALT Mean CFB: 3 IU/L
  Study 1 - ALT Mean percentage CFB: 24%
[24]
  Study 1 - ALT Mean CFB: 2 IU/L
  Study 1 - ALT Mean percentage CFB: 20%
[25]
  Study 1 - ALT Mean CFB: 2 IU/L
  Study 1 - ALT Mean percentage CFB: 28%
[26]
  Study 1 - ALT Mean CFB: 1 IU/L
  Study 1 - ALT Mean percentage CFB: 9%
[27]
  Study 1 - ALT Mean CFB: 1 IU/L
  Study 1 - ALT Mean percentage CFB: 10%
[28]
  Study 1 - ALT Mean CFB: 1 IU/L
  Study 1 - ALT Mean percentage CFB: 20%
[29]
  Study 1 - ALT Mean CFB: 1 IU/L
  Study 1 - ALT Mean percentage CFB: 25%
[30]
  Study 1 - ALT Mean CFB: 2 IU/L
  Study 1 - ALT Mean percentage CFB: 26%
[31]
  Study 1 - ALT Mean CFB: 0.8 IU/L
  Study 1 - ALT Mean percentage CFB: 8.9%
[32]
  Study 1 - ALT Mean CFB: −0.4 IU/L
  Study 1 - ALT Mean percentage CFB: 5.4%
[33]
  Study 1 - ALT Mean CFB: 0.3 IU/L
  Study 1 - ALT Mean percentage CFB: 10.9%
[34]
  Study 1 - ALT Mean CFB: 1.8 IU/L
  Study 1 - ALT Mean percentage CFB: 18.4%
[35]
  Study 1 - ALT Mean CFB: 2.5 IU/L
  Study 1 - ALT Mean percentage CFB: 28.6%
[36]
  Study 1 - ALT Mean CFB: 1.2 IU/L
  Study 1 - ALT Mean percentage CFB: 21.4%
[37]
  Study 1 - ALT Mean CFB: 0.0 IU/L
  Study 1 - ALT Mean percentage CFB: 15.2%
[38]
  Study 1 - ALT Mean CFB: 1.4 IU/L
  Study 1 - ALT Mean percentage CFB: 25.1%
[39]
  Study 1 - ALT Mean CFB: 0.6 IU/L
  Study 1 - ALT Mean percentage CFB: 8.5%
[40]
  Study 1 - ALT Mean CFB: 1.2 IU/L
  Study 1 - ALT Mean percentage CFB: 13.0%
[41]
  Study 1 - ALT Mean CFB: 2.5 IU/L
  Study 1 - ALT Mean percentage CFB: 24.2%
[42]
  Study 1 - ALT Mean CFB: 2.2 IU/L
  Study 1 - ALT Mean percentage CFB: 20.3%
[43]
  Study 1 - ALT Mean CFB: 2.1 IU/L
  Study 1 - ALT Mean percentage CFB: 27.6%
[44]
  Study 1 - ALT Mean CFB: 1.6 IU/L
  Study 1 - ALT Mean percentage CFB: 20.1%
[45]
  Study 1 - ALT Mean CFB: 3.0 IU/L
  Study 1 - ALT Mean percentage CFB: 26.2%
[46]
  Study 1 - ALT Mean CFB: 1.8 IU/L
  Study 1 - ALT Mean percentage CFB: 18.7%
[47]
  Study 1 - ALT Mean CFB: 0.9 IU/L
  Study 1 - ALT Mean percentage CFB: 6.6%
[48]
  Study 1 - ALT Mean CFB: −0.7 IU/L
  Study 1 - ALT Mean percentage CFB: 1.4%
[49]
  Study 1 - ALT Mean CFB: −0.6 IU/L
  Study 1 - ALT Mean percentage CFB: 4.8%
[50]
  Study 1 - ALT Mean CFB: 0.4 IU/L
  Study 1 - ALT Mean percentage CFB: 10.6%
